Structures are written as SMILES.

For series [1], the system named is MV-4-11 cells. Kind of series: Inhibition of tumor cell proliferation (CellTiter-Glo). Format: cell-based. As to conditions: Homo sapiens, MV4-11; MV-4-11 cells, 72 h, CellTiter-Glo; read-out: IC50 of inhibitory activity of tumor cell proliferation. As for the experimental part: MV-4-11 cells were diluted with medium (RPM1640+10% FBS+1% PS) and plated at 4000 cells/well in a white-walled clear-bottom 96-well plate. MV-4-11 cells were plated and incubated in a 5% CO2, 37° C. incubator for 2 hours. Cells were treated with the indicated concentration of compound or DMSO (control), and placed in a 5% CO2, 37° C. incubator for 72 h after dosing. After the end of the culture, equilibrate at room temperature for 30 min, add 100 μl of CellTiter-Glo® Reagent to each well, and shake the microplate shaker for 2 min. After 10 min of incubation at room temperature, the luminescence was measured by a microplate reader, and the cell-free wells were used as the background wells. CC-90009 (celegen patent phase I) was used as a control, and its structural formula was as follows: 0

Series [2] deals with T1, hERG potassium channel (Homo sapiens, UniProt Q12809). The series can be described thus: hERG inhibition assay (automated patch clamp, QPatch). The following applies: HEK293 cells expressing hERG, 3 min exposure.
T1 sequence (Q12809 whole entry): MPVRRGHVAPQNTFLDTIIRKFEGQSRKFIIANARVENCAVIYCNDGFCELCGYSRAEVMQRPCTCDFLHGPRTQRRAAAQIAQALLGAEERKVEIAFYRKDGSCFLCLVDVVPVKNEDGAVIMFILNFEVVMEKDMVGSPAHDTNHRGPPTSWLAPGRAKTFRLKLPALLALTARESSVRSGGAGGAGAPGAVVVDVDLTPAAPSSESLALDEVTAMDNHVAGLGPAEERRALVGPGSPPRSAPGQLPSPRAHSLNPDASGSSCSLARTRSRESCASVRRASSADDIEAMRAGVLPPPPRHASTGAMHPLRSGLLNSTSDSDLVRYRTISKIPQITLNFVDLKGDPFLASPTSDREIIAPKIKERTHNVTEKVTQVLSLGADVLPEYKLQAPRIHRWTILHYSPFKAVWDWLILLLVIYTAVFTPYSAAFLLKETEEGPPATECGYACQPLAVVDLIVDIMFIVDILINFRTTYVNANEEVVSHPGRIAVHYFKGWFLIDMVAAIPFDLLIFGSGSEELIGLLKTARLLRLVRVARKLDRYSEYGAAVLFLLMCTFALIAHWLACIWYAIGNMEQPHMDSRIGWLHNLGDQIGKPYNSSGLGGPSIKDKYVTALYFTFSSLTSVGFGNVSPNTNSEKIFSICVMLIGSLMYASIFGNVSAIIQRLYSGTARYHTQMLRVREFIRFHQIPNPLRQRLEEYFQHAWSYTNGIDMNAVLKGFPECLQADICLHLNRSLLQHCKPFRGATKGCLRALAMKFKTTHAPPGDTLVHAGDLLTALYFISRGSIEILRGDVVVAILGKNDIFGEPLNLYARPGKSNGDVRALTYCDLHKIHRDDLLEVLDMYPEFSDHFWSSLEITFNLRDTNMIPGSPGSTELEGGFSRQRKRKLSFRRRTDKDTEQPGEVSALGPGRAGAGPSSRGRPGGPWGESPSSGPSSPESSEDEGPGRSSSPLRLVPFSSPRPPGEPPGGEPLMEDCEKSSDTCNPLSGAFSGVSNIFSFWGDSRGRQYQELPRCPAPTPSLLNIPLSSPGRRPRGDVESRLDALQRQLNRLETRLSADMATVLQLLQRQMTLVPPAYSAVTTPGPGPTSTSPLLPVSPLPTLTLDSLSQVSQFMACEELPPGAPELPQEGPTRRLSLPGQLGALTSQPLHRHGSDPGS
Method: (§2) This test example is used to measure the effect of the compound on the hERG potassium channel of the clone expressed in human embryonic kidney cells (HEK293).
(§3) Assay: cells are placed in HEPES-buffered saline solution in glass-lined 96-well plates and loaded with appropriate amounts of test and control solution (0.3% DMSO solution) at each concentration for 3 min exposure time. Dilute the compound to be tested in 0.3% DMSO. An automated parallel patch-clamp system QPatch 48 X (Sophion) was used to test the inhibition of hERG by compounds at a concentration of 3 μM.
(§4) The calculation method of the inhibition rate is as follows: (peak tail current in the control group−peak tail current in the test group)/(peak tail current in the control group)×100%.
The target in series [3] is T1, hERG potassium channel. Kind of series: in vitro. As to conditions: hERG Inhibition rate (3 μM), HEK293 cells expressing hERG, 3 min exposure.
Method: as §2, §3, §4
Series [4] concerns the target T2, GSPT1 (Homo sapiens, UniProt P15170). Kind of series: Western blot of GSPT1 degradation in MV-4-11 cells. It counts as cell-based. The following applies: 4 h treatment, western blot (FIG. 1). Also noted: endogenous in cells. As for the experimental part:
(§1) Test Case 1: Regulatory Effect of the Present Invention Compound on GSPT1 in MV-4-11 Cells MV-4-11 (human myeloid monocytic leukemia cells) and NB-4 (human acute promyelocytic leukemia cells) cells were treated with medium RPMI 1640+10% FBS at 1*10^6/well was seeded in 6-well plates, then compounds were added for 4 h treatment, DMSO was used as a blank control, and cells were collected by centrifugation. Western blot analysis was performed with antibody labeling (Anti-GSPT1: CellSignaling Technology #14980s; Anti-GAPDH: HuabioET601-4; Goatanti-RabbitIgG-HRPantibody: HuabioHA1001) for detection on a Bio-Rad or MINICHEMI™ imaging system.

In series [5] the target is T2, GSPT1. The series can be described thus: Western blot of GSPT1 degradation in NB-4 cells. Format: cell-based. Also noted: endogenous in cells; host or cells: NB-4. On the procedure:
as §1

T2 sequence (P15170 whole entry): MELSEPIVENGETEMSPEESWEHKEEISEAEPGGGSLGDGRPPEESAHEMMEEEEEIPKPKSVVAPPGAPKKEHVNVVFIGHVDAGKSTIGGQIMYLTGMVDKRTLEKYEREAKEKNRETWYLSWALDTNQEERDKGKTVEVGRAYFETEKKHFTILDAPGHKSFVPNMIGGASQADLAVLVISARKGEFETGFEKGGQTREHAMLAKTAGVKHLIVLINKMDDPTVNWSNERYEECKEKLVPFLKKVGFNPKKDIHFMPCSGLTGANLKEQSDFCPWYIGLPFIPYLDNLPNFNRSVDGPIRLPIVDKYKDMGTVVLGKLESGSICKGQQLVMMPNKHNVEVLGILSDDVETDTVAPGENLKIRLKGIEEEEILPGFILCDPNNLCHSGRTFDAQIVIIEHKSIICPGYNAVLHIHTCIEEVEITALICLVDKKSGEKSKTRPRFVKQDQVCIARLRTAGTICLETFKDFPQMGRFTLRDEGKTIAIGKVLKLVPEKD

On to `O=C1CCC(N2Cc3cc(CNC(=O)C(F)(F)c4ccc(Cl)cc4)ccc3C2=O)C(=O)N1` (stereo not shown) [CC-90009], for which the IC50 in series [1] was in the range of 10 to 100 nM. The “hERG Inhibition rate (3 μM)” value in series [2] amounted to 64.48%. This molecule also came in with an inhibition at 3 µM in series [3] of 64%.

Take `CCc1ccc(C#CC(=O)NCc2ccc3c(c2)CN(C2CCC(=O)NC2=O)C3=O)cc1` (stereo not shown) [Compound 1]: the IC50 in series [1] is below 1 nM. Moreover, the “degradation of GSPT1 protein” value in series [4] (10 μM) is “completely degradation”.

Consider `O=C(C#Cc1ccc(F)cn1)NCc1ccc2c(c1)CN(C1CCC(=O)NC1=O)C2=O` (stereo not shown) [Compound 12], for which the IC50 in series [1] was 1 to 10 nM. In addition, in series [4] (concentrations from 1.52 nM), the “degradation of GSPT1, concentration dependence” value was “induced the degradation of GSPT1 more as the concentration increases”.

As for `Nc1ccccc1C#CC(=O)NCc1ccc2c(c1)CN(C1CCC(=O)NC1=O)C2=O` (stereo not shown) [Compound 83], in series [1], the IC50 was 1 to 10 nM. In addition, the “degradation of GSPT1” value in series [5] (0.01 μM, 4 h treatment, western blot (FIG. 1)) is reported as “significantly degradation”. For the same molecule, the “compound-induced degradation of GSPT1 after pretreatment with MG132 or MLN4924” value in series [5] (pretreatment with proteasome inhibitor MG132 or NEDD8 activating enzyme inhibitor MLN4924) is “completely blocked”.

Source of the values: patent publication US20240368113A1, “AMIDE COMPOUND AND USE THEREOF” (Chengdu Fendi Pharmaceutical Co. Ltd., priority 2021, published 2024).
